Assay results reported in US4613618A, “Method for treating disorders of lipid metabolism using benzene sulfonamides” (Choay S.A., priority 1981, dated 1986).
Where two headings read alike, the source gives them in different places.

Tests used:
[1] = tested on: hyperlipidemia caused by the administration of TRITON; test: Triton test: lipid regulating activity in hyperlipidemia caused by TRITON W. R.; type: in vivo, WISTAR male rats; conditions: Rattus norvegicus, po, 250 mg/kg orally, 6 hours and/or 24 hours
Procedure: In a first series of experiments, products were tested on a hyperlipidemia caused by the administration of TRITON according to the following procedure.
The tests were carried out on groups of five WISTAR male rats whose weight varied from 150 to 175 g.
The tested products were administered, orally in the form of a 3% aqueous solution of tragacanth gum in the ratio of 1 ml per 100 g of body weight, in an amount corresponding to 250 mg/kg.
To carry out these tests, a hyperlipidemia was caused in the animals, by means of the product marketed by the ROHM and HAAS Company under the name TRITON W. R.
On this hyperlipidemia the effects obtained by the administration of the active substances according to the invention, are observed.
The tests were carried out as follows:
the rats were fasted for 18 hours, then the TRITON W. R. was administered intravenously in 10% aqueous solution in the proportion of 200 mg/kg;
simultaneously 250 mg/kg of the product under test was administered orally;
6 hours and/or 24 hours later, blood assays were carried out conventionally.
to the total cholesterol, […]

[2] = Acute toxicity, intraperitoneal, mice; conditions: mouse, in vivo, ip, intraperitoneally, read-out: lethal dose 50
Procedure: The acute toxicity is expressed by the lethal dose 50, that is to say the dose resulting in the death of 50% of the animals.
This study was carried out on mice, to which the products under test were administered intraperitoneally.
It was established as follows, for the following substances: […]

[3] = tested on: atherosclerosis inducing diet (cholesterol, cholic acid, vitamine D2); test: Atherosclerosis inducing diet: biochemical exams; type: in vivo, Wistar female rats; parameters: CHOLESTEROL T, % reduction with respect to the control diet / CHOLESTEROL HDL, % with respect to the control diet / CHOLESTEROL LDL, % reduction with respect to the control diet / TRIGLYCERIDES, % reduction with respect to the control diet: concentration or dose not given beside the values; conditions: for TRIGLYCERIDES, % reduction with respect to the control diet / CHOLESTEROL HDL, % with respect to the control diet / CHOLESTEROL LDL, % reduction with respect to the control diet / CHOLESTEROL T, % reduction with respect to the control diet: 4 weeks administration; for CHOLESTEROL HDL, Score with respect to clofibrate / CHOLESTEROL LDL, Score with respect to clofibrate / CHOLESTEROL T, Score with respect to clofibrate / TRIGLYCERIDES, Score with respect to clofibrate: clofibrate counted as 1; for CHOLESTEROL T, % reduction with respect to the control diet: total cholesterol
Procedure: (§1) In a second experimental series, tha activity of certain products according to the invention were tested on animals which had received an atherosclerosis inducing diet for a long period.
(§2) The test was carried out on Wistar female rats, of weight about 160-180 g.
(§3) The animals received food coming from the National Nutrition plant of Villemoisson-sur-Orge, France, and denoted by the reference UAR AO3, enriched in cholesterol (0.5%) and in cholic acid (0.5%).
(§4) After 15 days of the atherosclerosis inducing diet and whilst maintaining the animals on an atherosclerosis inducing diet, they were given orally for 4 days 250.000 iu/kg of vitamine D2 marketed under the name Sterogyl 25H, in solution in olive oil.
(§5) Then the products under study were administered for 4 weeks, from the end of the administration of the lesion-inducing agent.
At the end of the study, biochemical examinations were carried out on all the animals [total cholesterol, high density lipoprotein (HDL) and cholesterol low density lipoprotein (LDL), and triglycerides].
(§6) Then the pecentage reduction with respect to the diet controls and the score were calculated, that is to say the ratio of the intensity of the activity of the product tested with respect to that of the activity of clofibrate, reckoned as 1.
Table IX gives the detailed results of the biochemical examination:
(a) in % reduction with respect to the control die;
(b) as score, with respect to the reference product, clofibrate, the latter being counted as 1.

atherosclerosis lesions = test: Atherosclerosis inducing diet: macroscopic exams (affected animals); type: in vivo, Wistar female rats; conditions: for Score with respect to the reference clofibrate (animals afflicted with lesions): clofibrate counted as 1; for AFFECTED ANIMALS %: macroscopic exams, TEM-diet 100
Procedure: as §1, §2, §3, §4, §5
(§7) At the end of the study, all the animals still alive were sacrificed, and various organs were removed, particularly the aorta, for histological study of the latter. Two criteria were examined: the number of atherosclerosis areas and the severity of the lesions.
as §6
Table X gives the results of macroscopic examinations:
(a) in % decrease in animals afflicted with lesions;
(b) as score with respect to the reference clofibrate, of which the score was counted as 1.

aorta = test: Atherosclerosis inducing diet: microscopic observations (aorta, histology); type: in vivo, Wistar female rats; parameters: HISTOLOGICAL QUOTATION, percentage reduction with respect to the diet controls / NUMBER OF ATHEROSCLEROTIC AREAS, percentage reduction with respect to the diet controls: concentration or dose not given beside the values; conditions: for NUMBER OF ATHEROSCLEROTIC AREAS: TEM-diet 160; for HISTOLOGICAL QUOTATION, score with respect to clofibrate / NUMBER OF ATHEROSCLEROTIC AREAS, score with respect to clofibrate: clofibrate counted as 1; for HISTOLOGICAL QUOTATION, percentage reduction with respect to the diet controls / HISTOLOGICAL QUOTATION: severity of the lesions; for HISTOLOGICAL QUOTATION: TEM-diet 132
Procedure: as §1, §2, §3, §4, §5, §7
Calculation of the figures was carried out in the following manner:
as regards the severity of the lesions, a quotation ranging from 0 for absence of a lesion to 5+ for the severest lesions was made, and this for each type of alteration concerned (increase of interlamellar spaces, interruption of elastic laminae, thickening of the elastic laminae, calcium deposition, mucopolysaccharide deposition); then all of the results per batch of animals were added;
as regards the number of atherosclerosis areas, by counting the latter and adding all the figures obtained per batch of animals.
as §6
Table XI gives the microscopic results with histological quotation as regards the severity of the lesions, and the number of atherosclerotic areas.

[4] = read-out: Triglycerides, % of decrease with respect to Triton control
[5] = read-out: Total cholesterol, % of decrease with respect to Triton control
[6] = read-out: Total lipids, % of decrease with respect to Triton control

Structure (SMILES) | change in vivo at 250 mg/kg [1, 4] [%] | LD50 [2] [mg/kg] | change in vivo at 250 mg/kg [1, 5] [%] | change in vivo at 250 mg/kg [1, 6] [%] | TRIGLYCERIDES, % reduction with respect to the control diet [3] | CHOLESTEROL HDL, % with respect to the control diet [3] | CHOLESTEROL LDL, % reduction with respect to the control diet [3] | CHOLESTEROL LDL, Score with respect to clofibrate [3] | CHOLESTEROL T, Score with respect to clofibrate [3] | TRIGLYCERIDES, Score with respect to clofibrate [3] | CHOLESTEROL T, % reduction with respect to the control diet [3] | % decrease in animals afflicted with lesions (atherosclerosis lesions) | Score with respect to the reference clofibrate (animals afflicted with lesions) (atherosclerosis lesions) | AFFECTED ANIMALS % (atherosclerosis lesions) | also measured
CCOC(=O)CCCCCCCCCCNS(=O)(=O)c1ccc(OC)cc1 [compound 729] | -17 | > 6400 | – | – | – | – | – | – | – | – | – | – | – | – | –
CCOC(=O)CCCCCCCCCCNS(=O)(=O)c1cccc([N+](=O)[O-])c1 [compound 676] | -24 | > 6400 | -10 | -43 | – | – | – | – | – | – | – | – | – | – | –
CCOC(=O)CCCCCCCCCCNS(=O)(=O)c1cc(Cl)c([N+](=O)[O-])cc1OC [compound 502] | -32 | 3070 | -16 | -45 | – | – | – | – | – | – | – | – | – | – | –
O=C(O)CCCCCNS(=O)(=O)c1cccc([N+](=O)[O-])c1 [compound 675] | -27 | 930 | -19 | -45 | – | – | – | – | – | – | – | – | – | – | –
COc1cc([N+](=O)[O-])c(Cl)cc1S(=O)(=O)NCCCC(=O)O [compound 387] | -90 | 3070 | – | -39 | – | – | – | – | – | – | – | – | – | – | –
CCOC(=O)CCCNS(=O)(=O)c1cccc([N+](=O)[O-])c1 [compound 679] | -34 | – | -30 | -61 | 0% | +58,33% | -60,14% | 1,09 | 1,09 | 0 | -53,13% | 7,14% | 0,39 | 92,86% | CHOLESTEROL HDL, Score with respect to clofibrate [3]: 0,56; NUMBER OF ATHEROSCLEROTIC AREAS, percentage reduction with respect to the diet controls (aorta): 48,57%; NUMBER OF ATHEROSCLEROTIC AREAS (aorta): 82%; HISTOLOGICAL QUOTATION, score with respect to clofibrate (aorta): 0,64; NUMBER OF ATHEROSCLEROTIC AREAS, score with respect to clofibrate (aorta): 0,88; HISTOLOGICAL QUOTATION, percentage reduction with respect to the diet controls (aorta): 39,97%; HISTOLOGICAL QUOTATION (aorta): 79%
CCOC(=O)C(C)(C)Oc1ccc(Cl)cc1 [CLOFIBRATE, clofibrate, reference compound] | – | – | – | – | -24,14% | +104,17% | -55,37% | 1,00 | 1,00 | 1,00 | -48,75% | 18,18% | 1,00 | 81,82% | CHOLESTEROL HDL, Score with respect to clofibrate [3]: 1,00; NUMBER OF ATHEROSCLEROTIC AREAS, percentage reduction with respect to the diet controls (aorta): 54,93%; NUMBER OF ATHEROSCLEROTIC AREAS (aorta): 72%; HISTOLOGICAL QUOTATION, score with respect to clofibrate (aorta): 1,00; NUMBER OF ATHEROSCLEROTIC AREAS, score with respect to clofibrate (aorta): 1,00; HISTOLOGICAL QUOTATION, percentage reduction with respect to the diet controls (aorta): 62,83%; HISTOLOGICAL QUOTATION (aorta): 49%
O=C(O)CCCNS(=O)(=O)c1cccnc1 [compound 786] | -17 | – | -36 | -24 | -17,24% | -20,83% | -57,07% | 1,03 | 1,11 | 0,71 | -54,22% | 6,67% | 0,37 | 93,33% | –
COc1cc([N+](=O)[O-])c(Cl)cc1S(=O)(=O)NCCCCCC(=O)O [compound 362] | -88 | 1760 | -10 | -39 | – | – | – | – | – | – | – | – | – | – | –
Nc1ccc(S(=O)(=O)NCCCCCC(=O)O)cc1 [compound 665] | -20 | > 6400 | -15 | -30 | – | – | – | – | – | – | – | – | – | – | –
